Measurements as given in the supplement of paper PMC8617591.

Assays:
[1] = tested on: Mycobacterium tuberculosis Erdman (autoluminescent); test: total FIC50 (Loewe) at 50% inhibition, three-drug combination (log2); higher = more antagonistic
Experimental: (§1)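 DiaMOND equipotent three-drug combination dose responses (10 doses, 1.5- or 2-fold spacing, centred on IC90) against autoluminescent M. tuberculosis Erdman in 8 in vitro models. Read-out is OD600, or luminescence for the intracellular and dormancy models, normalised to untreated wells. Hill-fit Einf, AUC25 and GRinf are potency metrics; FIC50 and FIC90 are total Loewe fractional inhibitory concentrations as log2 (negative = synergy).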

[2] = tested on: Mycobacterium tuberculosis Erdman (autoluminescent); test: GRinf, maximum normalised growth rate inhibition (three-drug combination) (unitless (-1 to 1)); higher = less effect (negative = killing)
Experimental: as §1

[3] = tested on: Mycobacterium tuberculosis Erdman (autoluminescent); test: total FIC90 (Loewe) at 90% inhibition, three-drug combination (log2); higher = more antagonistic
Experimental: as §1

[4] = tested on: Mycobacterium tuberculosis Erdman (autoluminescent); test: AUC25, normalised area under dose response up to IC25 (three-drug combination) (fraction (0-1)); higher = more potent at low dose
Experimental: as §1

[5] = tested on: Mycobacterium tuberculosis Erdman (autoluminescent); test: Einf, fitted maximum growth inhibition of three-drug combination (fraction); higher = stronger maximal inhibition
Experimental: as §1

CC(=O)NC[C@H]1CN(c2ccc(N3CCOCC3)c(F)c2)C(=O)O1 [linezolid] + COc1c(N2C[C@@H]3CCCN[C@@H]3C2)c(F)cc2c(=O)c(C(=O)O)cn(C3CC3)c12 [moxifloxacin] + O=[N+]([O-])c1cn2c(n1)OC[C@@H](OCc1ccc(OC(F)(F)F)cc1)C2 [pretomanid]
Settings | AUC25, [4] | Einf, [5] | GRinf, [2] | total FIC50, [1] | total FIC90, [3]
in vitro model: acidic pH 5.7, time point: constant (~7 days, model-specific) | 0.113 | 0.883 | -0.748 | 0.776 | –
in vitro model: acidic pH 5.7, time point: terminal (~4-5 doublings, model-specific) | 0.0579 | 0.945 | -0.404 | 1.08 | 0.694
in vitro model: intracellular J774, time point: constant = terminal | – | 0.954 | -0.659 | – | 1.38

Settings | AUC25, [4] | Einf, [5] | GRinf, [2] | total FIC50, [1] | total FIC90, [3]
in vitro model: butyrate, time point: constant (~7 days, model-specific) | 0.0971 | 0.916 | 0.0148 | 0.594 | 0.801
in vitro model: butyrate, time point: terminal (~4-5 doublings, model-specific) | 0.0695 | 0.953 | 0.0166 | 0.499 | 0.736
in vitro model: cholesterol 0.05 mM, time point: constant (~7 days, model-specific) | 0.14 | 0.692 | -0.183 | 0.0017 | –
in vitro model: cholesterol 0.05 mM, time point: terminal (~4-5 doublings, model-specific) | 0.134 | 0.908 | -0.206 | 0.534 | 0.307
in vitro model: cholesterol-high 0.2 mM, time point: constant (~7 days, model-specific) | 0.121 | 0.923 | -0.45 | 0.187 | 1.91
in vitro model: cholesterol-high 0.2 mM, time point: terminal (~4-5 doublings, model-specific) | 0.117 | 0.989 | -0.722 | 0.117 | 0.839
in vitro model: dormancy (butyrate + nitrate, low O2), time point: constant (~7 days, model-specific) | 0.0437 | 0.879 | 0.219 | 0.988 | 0.456
in vitro model: dormancy (butyrate + nitrate, low O2), time point: terminal (~4-5 doublings, model-specific) | 0.0489 | 0.979 | -0.165 | 1.01 | 0.983
in vitro model: standard 7H9 glycerol, time point: constant = terminal | 0.0706 | 0.962 | -0.151 | 0.466 | 0.766
in vitro model: valerate, time point: constant (~7 days, model-specific) | 0.138 | 0.861 | -0.229 | -0.643 | –
in vitro model: valerate, time point: terminal (~4-5 doublings, model-specific) | 0.0994 | 0.918 | -0.0505 | -0.495 | 0.791

CC(=O)NC[C@H]1CN(c2ccc(N3CCOCC3)c(F)c2)C(=O)O1 [linezolid] + NC(=O)c1cnccn1 [pyrazinamide] + CO[C@H]1/C=C/O[C@@]2(C)Oc3c(C)c(O)c4c(O)c(c(/C=N/N5CCN(C6CCCC6)CC5)c(O)c4c3C2=O)NC(=O)/C(C)=C\C=C\[C@H](C)[C@H](O)[C@@H](C)[C@@H](O)[C@@H](C)[C@H](OC(C)=O)[C@@H]1C [rifapentine]
Settings | AUC25, [4] | Einf, [5] | GRinf, [2] | total FIC50, [1] | total FIC90, [3]
in vitro model: acidic pH 5.7, time point: constant (~7 days, model-specific) | 0.105 | 0.91 | -0.206 | 0.0539 | –
in vitro model: acidic pH 5.7, time point: terminal (~4-5 doublings, model-specific) | 0.0872 | 0.992 | -0.258 | -0.0159 | –
in vitro model: intracellular J774, time point: constant = terminal | – | 0.947 | -0.174 | – | -0.0473

Settings | AUC25, [4] | Einf, [5] | GRinf, [2] | total FIC50, [1] | total FIC90, [3]
in vitro model: butyrate, time point: constant (~7 days, model-specific) | 0.0966 | 0.892 | 0.08 | -0.0866 | –
in vitro model: butyrate, time point: terminal (~4-5 doublings, model-specific) | 0.0673 | 0.94 | 0.0873 | 0.038 | -0.132
in vitro model: cholesterol 0.05 mM, time point: constant (~7 days, model-specific) | 0.143 | 0.758 | -0.43 | – | –
in vitro model: cholesterol 0.05 mM, time point: terminal (~4-5 doublings, model-specific) | 0.139 | 0.938 | -0.446 | 0.219 | –
in vitro model: cholesterol-high 0.2 mM, time point: constant (~7 days, model-specific) | 0.112 | 0.952 | -0.497 | 0.301 | –
in vitro model: cholesterol-high 0.2 mM, time point: terminal (~4-5 doublings, model-specific) | 0.0909 | 1 | -0.945 | 0.319 | -0.0261
in vitro model: dormancy (butyrate + nitrate, low O2), time point: constant (~7 days, model-specific) | 0.0577 | 0.867 | 0.245 | 0.405 | 0.766
in vitro model: dormancy (butyrate + nitrate, low O2), time point: terminal (~4-5 doublings, model-specific) | 0.0343 | 0.976 | -0.12 | 0.486 | 0.153
in vitro model: standard 7H9 glycerol, time point: constant = terminal | 0.0547 | 0.876 | 0.183 | 0.187 | –
in vitro model: valerate, time point: constant (~7 days, model-specific) | 0.0698 | 0.865 | 0.0833 | -0.277 | –
in vitro model: valerate, time point: terminal (~4-5 doublings, model-specific) | 0.0324 | 0.921 | 0.0692 | -0.0139 | -0.406

CC(=O)NC[C@H]1CN(c2ccc(N3CCOCC3)c(F)c2)C(=O)O1 [linezolid] + NC(=O)c1cnccn1 [pyrazinamide] + CO[C@H]1/C=C/O[C@@]2(C)Oc3c(C)c(O)c4c(O)c(c(/C=N/N5CCN(C)CC5)c(O)c4c3C2=O)NC(=O)/C(C)=C\C=C\[C@H](C)[C@H](O)[C@@H](C)[C@@H](O)[C@@H](C)[C@H](OC(C)=O)[C@@H]1C [rifampicin]
Settings | AUC25, [4] | Einf, [5] | GRinf, [2] | total FIC50, [1] | total FIC90, [3]
in vitro model: acidic pH 5.7, time point: constant (~7 days, model-specific) | 0.0897 | 0.883 | -0.255 | 0.175 | –
in vitro model: acidic pH 5.7, time point: terminal (~4-5 doublings, model-specific) | 0.0731 | 0.986 | -0.249 | 0.189 | –
in vitro model: intracellular J774, time point: constant = terminal | – | 0.953 | -0.411 | – | -0.0717

Settings | AUC25, [4] | Einf, [5] | GRinf, [2] | total FIC50, [1] | total FIC90, [3]
in vitro model: butyrate, time point: constant (~7 days, model-specific) | 0.0912 | 0.889 | 0.0887 | -0.0235 | 0.328
in vitro model: butyrate, time point: terminal (~4-5 doublings, model-specific) | 0.075 | 0.94 | 0.0909 | -0.114 | -0.413
in vitro model: cholesterol 0.05 mM, time point: constant (~7 days, model-specific) | 0.141 | 0.702 | -0.117 | – | –
in vitro model: cholesterol 0.05 mM, time point: terminal (~4-5 doublings, model-specific) | 0.127 | 0.929 | -0.289 | 0.713 | –
in vitro model: cholesterol-high 0.2 mM, time point: constant (~7 days, model-specific) | 0.116 | 0.926 | -0.72 | 0.321 | –
in vitro model: cholesterol-high 0.2 mM, time point: terminal (~4-5 doublings, model-specific) | 0.104 | 0.995 | -0.826 | 0.598 | 0.554
in vitro model: dormancy (butyrate + nitrate, low O2), time point: constant (~7 days, model-specific) | 0.0758 | 0.893 | 0.203 | 0.486 | 0.378
in vitro model: dormancy (butyrate + nitrate, low O2), time point: terminal (~4-5 doublings, model-specific) | 0.0314 | 0.972 | -0.277 | 0.208 | -0.126
in vitro model: standard 7H9 glycerol, time point: constant = terminal | 0.0779 | 0.908 | 0.119 | -0.168 | –
in vitro model: valerate, time point: constant (~7 days, model-specific) | 0.0571 | 0.853 | 0.1 | 0.122 | –
in vitro model: valerate, time point: terminal (~4-5 doublings, model-specific) | 0.0305 | 0.925 | 0.0656 | 0.211 | -0.35
